Results: publication PMC9283466, “In silico identification of two peptides with antibacterial activity against multidrug-resistant Staphylococcus aureus” (NPJ Biofilms and Microbiomes, 2022)
In brackets after ≈: the same amount, converted by molar mass. Peptide text beside a SMILES is read from it.

Experiments:
S. aureus ATCC 33591 = assay: microbe, parasite or virus in culture; type: cell-based, Staphylococcus aureus; conditions: Staphylococcus aureus; S. aureus ATCC 33591; MRSA; read-out: MIC
Description: (§1) To determine the antimicrobial activity of the new antimicrobial peptides, HG2 and HG4, their minimum inhibitory concentrations (MICs) were determined by broth microdilution method[51] in cation adjusted Mueller Hinton broth (MHB) following the International Organisation for Standardisation (ISO) 20776-1 standard for MIC testing using a final bacterial inoculum of 5 × 10^5 CFU/ml[52]. […] The peptides dissolved in sterile distilled water were added to bacteria culture and incubated overnight at appropriate conditions. The MICs of the peptides and comparator antibiotics were recorded after 18–24 h. The minimum bactericidal concentrations (MBCs) were also determined and were taken as the lowest concentration of the antimicrobial that prevented the growth of bacterial cells after the subculture of cells (from MIC treatment) onto antibiotic-free media.

S. aureus EMRSA-15 = assay: microbe, parasite or virus in culture; type: cell-based, Staphylococcus aureus; conditions: Staphylococcus aureus; S. aureus EMRSA-15; resistances MRSA, Cip; read-out: MIC
Description: as §1

[1] = test system: S. aureus USA300 BAA-1717; assay: microbe, parasite or virus in culture; type: cell-based, Staphylococcus aureus; conditions: Staphylococcus aureus, BAA-1717 / MRSA / USA300; S. aureus USA300 BAA-1717; MRSA; read-out: MIC
Description: as §1

P. aeruginosa = assay: microbe, parasite or virus in culture; type: cell-based, Pseudomonas aeruginosa
Description: as §1

Sal. typhimurium = assay: microbe, parasite or virus in culture; type: cell-based, Salmonella enterica serovar Typhimurium
Description: as §1

E. coli = assay: microbe, parasite or virus in culture; type: cell-based, Escherichia coli
Description: as §1

EMRA-15 = assay: microbe, parasite or virus in culture; type: cell-based, Staphylococcus aureus
Description: as §1

S. aureus = assay: microbe, parasite or virus in culture; type: cell-based, Staphylococcus aureus
Description: as §1

Ent. faecalis = assay: microbe, parasite or virus in culture; type: cell-based, Enterococcus faecalis
Description: as §1

List. monocytogenes = assay: microbe, parasite or virus in culture; type: cell-based, Listeria monocytogenes
Description: as §1

MRSA USA300 cells [2] = assay: Time-kill kinetics; type: cell-based, Staphylococcus aureus; conditions: 3x MIC, comparator antibiotics, time not stated
Description: The bactericidal activity of HG2, HG4 and comparator antimicrobial compounds was assessed using exponential-phase cultures[14] of MRSA USA300 grown in MHB (1 × 10^6-8 CFU/ml). […] Samples were taken at different time points, serially diluted and inoculated onto MH agar plates using the spread plate technique. After overnight incubation, the colony-forming units per millilitre of cell culture (CFU/ml) was calculated. Experiments were performed in quadruplicates.

MRSA USA300 cells [3] = assay: Serial passage / resistance assay; type: cell-based, Staphylococcus aureus; conditions: sub-MIC exposure over 20 days, MRSA USA300
Description: In vitro evaluation of the potential for MRSA USA3000 cells to develop resistance to HG2 and HG4 was performed as follows. […] Cultures from the highest concentration that supported growth were diluted 1: 1000 in MHB and used to provide the inoculum for the next passage day. This process was performed for a total duration of 20 days. Any putative mutants recovered were isolated via streak dilution for three generations on MHA, prior to further characterisation.

Structure (SMILES) | MIC (S. aureus ATCC 33591) [µg/mL] | MIC (S. aureus EMRSA-15) [µg/mL] | MIC [1] [µg/mL] | Minimum inhibitory Concentrations MICs (P. aeruginosa) [µg/mL] | Minimum inhibitory Concentrations MICs (Sal. typhimurium) [µg/mL] | Minimum inhibitory Concentrations MICs (E. coli) [µg/mL] | Minimum inhibitory Concentrations MICs (EMRA-15) [µg/mL] | Minimum inhibitory Concentrations MICs (S. aureus) [µg/mL] | Minimum inhibitory Concentrations MICs (Ent. faecalis) [µg/mL] | Minimum inhibitory Concentrations MICs (List. monocytogenes) [µg/mL] | reduction in viable cells (time-kill) (MRSA USA300 cells [2]) [log10 CFU/ml] | fold increase in MIC during serial passage (MRSA USA300 cells [3]) [fold]
C[C@H]1COc2c(N3CCN(C)CC3)c(F)cc3c(=O)c(C(=O)O)cn1c23 [Levof, levofloxacin] | 0.015 (≈ 0.0415 µM) | 1 (≈ 2.77 µM) | 0.0075 (≈ 0.0208 µM) |  |  |  |  |  |  |  |  | 
CC[C@H](C)[C@H](NC(=O)[C@H](CC(C)C)NC(=O)[C@H](CC(C)C)NC(=O)[C@H](CC(C)C)NC(=O)[C@H](CCCCN)NC(=O)[C@H](CCCCN)NC(=O)[C@@H](N)CCSC)C(=O)N[C@@H](CC(C)C)C(=O)N[C@@H](Cc1ccccc1)C(=O)N[C@@H](CS)C(=O)N[C@@H](CC(C)C)C(=O)N[C@@H](C)C(=O)N[C@@H](CC(C)C)C(=O)N[C@@H](C)C(=O)N[C@@H](CC(C)C)C(=O)N[C@@H](C)C(=O)NCC(=O)N[C@@H](CS)C(=O)N[C@@H](CCCCN)C(=O)N[C@@H](CCCCN)C(=O)N[C@@H](C)C(=O)N1CCC[C@H]1C(N)=O [Linear HG2] (H-MKKLLLILFCLALALAGCKKAP-NH2; N-terminus and C-terminus assumed) |  |  |  | > 1024 | > 1024 | > 1024 | > 1024 | > 1024 | > 1024 | > 1024 |  | 
C/C(=C\C(=O)OCCCCCCCCC(=O)O)C[C@@H]1OC[C@H](C[C@@H]2O[C@H]2[C@@H](C)[C@H](C)O)[C@@H](O)[C@H]1O [Mupirocin, reference compound] |  |  | 0.12 (≈ 0.24 µM) |  |  |  |  |  |  |  | ≥ 2 | 32
